Values of other authors as cited in patent publication US20110262540A1, “Solid Pharmaceutical Composition Comprising Exemestane” (ARROW INTERNATIONAL LIMITED, priority 2008, published 2011).

- Solubility in water: practically insoluble in water
SMILES: C=C1C[C@@H]2[C@H](CC[C@]3(C)C(=O)CC[C@@H]23)[C@@]2(C)C=CC(=O)C=C12 [Exemestane, 6-methylenandrosta-1,4-diene-3,17-dione]
